Source: publication PMC9963409, “Structural Insight into Catalysis by the Flavin-Dependent NADH Oxidase (Pden_5119) of Paracoccus denitrificans” (International Journal of Molecular Sciences, 2023)

Assays:
Pden_5119 [1] = target: T1, Pden_5119 (Paracoccus denitrificans, UniProt A1BCD5); test: intrinsic protein fluorescence quenching titration; format: binding; conditions: read-out: Kd^FMN
T1 construct: C-terminal His6 tag kept, expressed in E. coli BL21(DE3)pLysS; subunit 20596 g/mol; dimer in solution; contains no cysteine
Text: (§1) intrinsic protein fluorescence quenching titration on Pden_5119

Pden_5119 [2] = target: T2, Pden_5119 (Paracoccus denitrificans, UniProt A1BCD5, H117A); test: intrinsic protein fluorescence quenching titration; format: binding; conditions: read-out: Kd^FMN
T2 construct: C-terminal His6 tag kept, expressed in E. coli BL21(DE3)pLysS; subunit 20596 g/mol; dimer in solution; contains no cysteine
T2 sequence (A1BCD5 entry or part of it H117A): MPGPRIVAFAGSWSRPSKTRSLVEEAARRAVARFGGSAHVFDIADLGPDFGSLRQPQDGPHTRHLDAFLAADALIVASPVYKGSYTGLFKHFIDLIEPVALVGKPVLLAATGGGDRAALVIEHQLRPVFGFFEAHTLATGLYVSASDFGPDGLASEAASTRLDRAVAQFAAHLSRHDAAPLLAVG
Text: as §1

Pden_5119 [3] = target: T3, Pden_5119 (Paracoccus denitrificans, UniProt A1BCD5, K82A); test: intrinsic protein fluorescence quenching titration; format: binding; conditions: read-out: Kd^FMN
T3 construct: C-terminal His6 tag kept, expressed in E. coli BL21(DE3)pLysS; subunit 20596 g/mol; dimer in solution; contains no cysteine
T3 sequence (A1BCD5 entry or part of it K82A): as the sequence (A1BCD5 entry or part of it H117A) above, with K82A, A117H counted along it
Text: as §1

Pden_5119 [4] = target: T4, Pden_5119 (Paracoccus denitrificans, UniProt A1BCD5, R116A); test: intrinsic protein fluorescence quenching titration; format: binding; conditions: read-out: Kd^FMN
T4 construct: C-terminal His6 tag kept, expressed in E. coli BL21(DE3)pLysS; subunit 20596 g/mol; dimer in solution; contains no cysteine
T4 sequence (A1BCD5 entry or part of it R116A): as the sequence (A1BCD5 entry or part of it H117A) above, with R116A, A117H counted along it
Text: as §1

Pden_5119 [5] = target: T5, Pden_5119 (Paracoccus denitrificans, UniProt A1BCD5, R116K); test: intrinsic protein fluorescence quenching titration; format: binding; conditions: read-out: Kd^FMN
T5 construct: C-terminal His6 tag kept, expressed in E. coli BL21(DE3)pLysS; subunit 20596 g/mol; dimer in solution; contains no cysteine
T5 sequence (A1BCD5 entry or part of it R116K): as the sequence (A1BCD5 entry or part of it H117A) above, with R116K, A117H counted along it
Text: as §1

Pden_5119 [6] = target: T2, Pden_5119; test: stopped-flow reduction of enzyme-bound FMN at […] nm, hyperbolic fit of kobs; format: biochemical; conditions: anaerobic reductive half-reaction of enzyme-FMN complex; rapid-equilibrium binding step; 0.1 M sodium phosphate pH 7.3; 10 °C; read-out: KNADH
Pden_5119 [7] = target: T5, Pden_5119; test: as above; format: biochemical; conditions: anaerobic reductive half-reaction of enzyme-FMN complex; rapid-equilibrium binding step; 0.1 M sodium phosphate pH 7.3; 10 °C; read-out: KNADH
Pden_5119 [8] = target: T4, Pden_5119; test: as above; format: biochemical; conditions: anaerobic reductive half-reaction of enzyme-FMN complex; rapid-equilibrium binding step; 0.1 M sodium phosphate pH 7.3; 10 °C; read-out: KNADH
Pden_5119 [9] = target: T3, Pden_5119; test: as above; format: biochemical; conditions: anaerobic reductive half-reaction of enzyme-FMN complex; rapid-equilibrium binding step; 0.1 M sodium phosphate pH 7.3; 10 °C; read-out: KNADH
Pden_5119 [10] = target: T1, Pden_5119; test: as above; format: biochemical; conditions: anaerobic reductive half-reaction of enzyme-FMN complex; rapid-equilibrium binding step; 0.1 M sodium phosphate pH 7.3; 10 °C; read-out: KNADH
[11] = target: the molecule itself; test: SAXS; protein at 1.5 mg/mL (73 μM in monomer); ab initio envelope (DAMMIN) and CRYSOL fit of a dimeric homology model to the scattering curve

Work on Cc1cc2nc3c(=O)[nH]c(=O)nc-3n(C[C@H](O)[C@H](O)[C@H](O)COP(=O)(O)O)c2cc1C [FMN] yielded a Kd (Pden_5119 [1]) of 3.8 ± 0.4 µM, a Kd (Pden_5119 [2]) of 9.1 ± 0.6 µM and a Kd (Pden_5119 [3]) of 6.8 ± 3.4 µM. For the same molecule, the Kd (Pden_5119 [4]) was 3.5 ± 1.5 µM and the Kd (Pden_5119 [5]) was 0.6 ± 0.1 µM.

Molecule NC(=O)C1=CN([C@@H]2O[C@H](COP(=O)(O)OP(=O)(O)OC[C@H]3O[C@@H](n4cnc5c(N)ncnc54)[C@H](O)[C@@H]3O)[C@@H](O)[C@H]2O)C=CC1 [NADH] has a Kd (Pden_5119 [6]) of 40 ± 7 µM, a Kd (Pden_5119 [7]) of 20 ± 4 µM and a Kd (Pden_5119 [8]) of 39 ± 17 µM. The Kd (Pden_5119 [9]) was 53 ± 18 µM and the Kd (Pden_5119 [10]) was 19 ± 1 µM.

B1: Pden_5119 protein (flavin-dependent NADH oxidase of Paracoccus denitrificans) (enzyme)
chain: MPGPRIVAFAGSWSRPSKTRSLVEEAARRAVARFGGSAHVFDIADLGPDFGSLRQPQDGPHTRHLDAFLAADALIVASPVYKGSYTGLFKHFIDLIEPVALVGKPVLLAATGGGDRHALVIEHQLRPVFGFFEAHTLATGLYVSASDFGPDGLASEAASTRLDRAVAQFAAHLSRHDAAPLLAVG
notes: Pden_5119, product of the gene pden_5119 of Paracoccus denitrificans; subunit molar mass 20 596 g/mol; 15 histidines per monomer including the tag; also called wild-type; not shown: His6, C-terminal, kept
B1 was tested, and the “stoichiometry N” value [11] was 2.
